Here are results for two molecules from the NIST ThermoML archive (doi:10.1021/acs.jced.7b00840).

The conditions of the series: Crystal; visual observation.

± gives the expanded uncertainty stated by the source.

Regarding `Nc1ccccc1I` [2-iodoaniline], the Triple point temperature is 325.7 ± 1.2 K.
Regarding `Nc1ccc(I)cc1` [4-iodoaniline], the Triple point temperature is 332.35 ± 0.87 K.
